In patent US20020077328A1, “Selective cyclooxygenase-2 inhibitors and vasomodulator compounds for generalized pain and headache pain” (priority 2000, published 2002):

Assay: Solubility of celecoxib and valdecoxib in various solvent liquids
Type: physicochemical
Protocol: Aliquots of a solvent liquid were then added dropwise in approximately 100 mg increments to the solid sample. The resulting mixture was vortexed and/or sonicated between aliquot additions. […] Solubility values preceded by the < symbol denote that, at the particular concentration shown, the mixture was still cloudy, i.e., not all of the drug was fully in dissolved form.

[1] = Labrasol ™ /DGME/propylene glycol laurate 40:40:20 w/w
[2] = Polyethylene glycol 400/water 1:1 w/w
[3] = Polyethylene glycol 400/water 2:1 w/w
[4] = Propylene glycol laurate/Labrasol ™ 1:1 w/w
[5] = Tagat ™ TO/Capmul ™ MCM 1:1 w/w

Cc1onc(-c2ccccc2)c1-c1ccc(S(N)(=O)=O)cc1 [valdecoxib]
Advantage in solubility for DGME over propylene glycol: approximately tenfold
Solubility (Capmul ™ MCM): 13 mg/g
Solubility (DGME/water 1:1 w/w): 6 mg/g
Solubility (DGME/water 2:1 w/w): 32 mg/g
Solubility (Diethylene glycol monoethyl ether (DGME)): 120 mg/g
Solubility (Labrasol ™): 34 mg/g
Solubility [1]: 130 mg/g
Solubility (Polyethylene glycol 400): 50 − 85 mg/g
Solubility [2]: 1 mg/g
Solubility [3]: 13 mg/g
Solubility (Propylene glycol): 10 − 20 mg/g
Solubility (Propylene glycol laurate): 22 mg/g
Solubility [4]: 42 mg/g
Solubility (Tagat ™ TO): 23 mg/g
Solubility [5]: 24 mg/g

Cc1ccc(-c2cc(C(F)(F)F)nn2-c2ccc(S(N)(=O)=O)cc2)cc1 [celecoxib]
Solubility (Arlacel ™ 186): 13 mg/g
Solubility (Capmul ™ MCM): 19 − 21 mg/g
Solubility (Cremophor ™ EL): 36 mg/g
Solubility (DGME/water 1:1 w/w): 3 mg/g
Solubility (DGME/water 2:1 w/w): 42 mg/g
Solubility (Ethyl caprylate): 25 mg/g
Solubility (Labrasol ™): 64 mg/g
Solubility (Labrasol ™ /DGME 1:1 w/w): 335 mg/g
Solubility (Labrasol ™ /DGME/propylene glycol laurate 35:35:30 w/w): 266 mg/g
Solubility [1]: 288 − 297 mg/g
Solubility (Labrasol ™ /DGME/propylene glycol laurate 45:45:10 w/w): 313 − 325 mg/g
Solubility (Miglyol ™ 812): 6 − 12 mg/g
Solubility (Polyethylene glycol 400): 304 mg/g
Solubility [2]: <1 mg/g
Solubility [3]: 6 mg/g
Solubility (Polysorbate 80): 73 mg/g
Solubility (Propylene glycol): 23 − 41 mg/g
Solubility (Propylene glycol laurate): 18 mg/g
Solubility [4]: 58 mg/g
Solubility (Tagat ™ /Capmul ™ MCM/DGME 35:35:30 w/w): 212 mg/g
Solubility (Tagat ™ /Capmul ™ MCM/DGME 58:12:30 w/w): 274 mg/g
Solubility (Tagat ™ TO): 24 − 40 mg/g
Solubility [5]: 34 − 52 mg/g
Solubility (Tetraethylene glycol dimethyl ether): 188 mg/g
Solubility (Triethylene glycol monoethyl ether): 170 mg/g
